Earlier results on 2 compounds are cited in EP0356866A2, “Phosphorus-containing squalene synthetase inhibitors and method” (E.R. SQUIBB & SONS, INC., priority 1988, dated 1990).

The data set addresses T1, avian liver farnesyl diphosphate synthetase (Gallus gallus, UniProt P08836).
T1 construct: host or cells: avian liver
T1 sequence (P08836 1-367): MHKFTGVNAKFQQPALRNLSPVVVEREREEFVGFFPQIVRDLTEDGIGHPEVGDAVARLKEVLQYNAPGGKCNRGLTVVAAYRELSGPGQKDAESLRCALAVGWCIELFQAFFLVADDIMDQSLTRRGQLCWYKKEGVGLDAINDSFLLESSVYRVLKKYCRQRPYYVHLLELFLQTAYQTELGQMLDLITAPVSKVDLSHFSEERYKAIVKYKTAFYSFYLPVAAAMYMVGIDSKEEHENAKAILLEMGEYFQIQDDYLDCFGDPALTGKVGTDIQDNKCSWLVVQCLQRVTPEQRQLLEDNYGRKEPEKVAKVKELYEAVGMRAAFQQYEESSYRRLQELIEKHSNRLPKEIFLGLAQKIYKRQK
The settings on record: competitive inhibitors of the 1′-4-condensation between isopentenyl diphosphate and geranyl diphosphate.

For orientation: Ki means a dissociation constant, usually derived from enzyme kinetics or from competition with a known ligand. As for `C=C(C)CCCP(=O)(O)CP(=O)(O)O` [G], the inhibition constant (Ki) is 19 µM.

Take `CC(C)=CCCP(=O)(O)CP(=O)(O)O` [H]: the inhibition constant (Ki) was 71 µM.
